Results published in US20050090506A1, “Insecticidal perfluoroalkylthiazole derivatives” (Nippon Soda Co., Ltd., priority 2003, published 2005).

Question: With `O=C(Nc1nc(C(F)(F)C(F)(F)F)c(CCl)s1)c1cc(C(F)(F)F)cc(C(F)(F)F)c1` [Compound 47, N-(5-chloromethyl-4-pentafluoroethylthiazol-2-yl)-3,5-bis-trifluoromethylbenzamide] as the compound, how does the melting point read?
Answer: 133 to 134 °C

Question: With `CCOC(=O)c1sc(NC(=O)c2cc(C(F)(F)F)cc(C(F)(F)F)c2)nc1C(F)(F)C(F)(F)F` [Compound 68, N-(5-Ethoxycarbonyl-4-pentafluoroethylthiazol-2-yl)-3,5-bis-trifluoromethylbenzamide] as the compound, how does the melting point read?
Answer: 154 to 155 °C

Question: With `CCOC(=O)c1sc(NC(=O)c2ccc(C)cc2)nc1C(F)(F)C(F)(F)F` [Compound 2, N-(5-Ethoxycarbonyl-4-pentafluoroethylthiazol-2-yl)-4-methylbenzamide] as the compound, how does the melting point read?
Answer: 202 to 203 °C
